In US20220257578A1, “COMPOSITION AND METHOD FOR TREATING CANDIDA AURIS INFECTION” (Appili Therapeutics Inc., priority 2019, published 2022):
Converted amounts (≈) assume the structure as drawn. Read-outs that look alike come from different tables or passages of the source.

Experiments:
C. auris (DI 17-46) = experiment: Neutropenic mice with invasive candidiasis secondary to C. auris (survival arm and fungal burden arm); type: in vivo; conditions: for percent survival: day 21, control 0%; for kidney fungal burden (mean): control 7.09; for kidney fungal burden: control 8.04
Method: FIG. 1 depicts survival curves in mice inoculated intravenously with C. auris and treated with vehicle control, fluconazole 20 mg/kg PO QD, or caspofungin 10 mg/kg IP QD (A) or T-2307 at doses of 0.75 mg/kg, 1.5 mg/kg, or 3 mg/kg SC QD (B). Treatment started one day post-inoculation and continued for 7 days. Mice were then followed off therapy until day 21 post-inoculation (14 days after therapy stopped). Black square—vehicle control; white circle—fluconazole 20 mg/kg; black circle—caspofungin 10 mg/kg; inverted gray triangle T-2307 0.75 mg/kg; gray rectangle—T-2307 1.5 mg/kg; gray triangle—T-2307 3 mg/kg. N=10 mice per group.
(§1) FIG. 2 depicts graphs showing kidney (A) and brain (B) fungal burden (CFU/g) in mice with invasive candidiasis secondary to C. auris in the fungal burden arm. Colony-forming units were measured on day 8 post-inoculation after 7 days of therapy. N=10 mice in the vehicle control and treatment groups; N=5 mice in the 24-hour control group.
as §1, with “FIG. 3” for “FIG. 2”, “the survival” for “the fungal burden”, “group. Black circles represent mice that succumbed to infection prior to day 21; gray circles represent mice that survived to the survival endpoint.” for “group.”
Male Institute of Cancer Research (ICR) mice were rendered neutropenic with a single dose of 5-fluorouracil (5 mg/mouse) administered 24 hours prior to inoculation, and a clinical isolate of C. auris (DI 17-46) was used to infect mice via the lateral tail vein as previously described (Wiederhold et al. 2019. Antimicrob Agents Chemother. 63:e02233-18, the entire contents of which is herein incorporated by reference). Treatment with vehicle control, T-2307 (0.75, 1.5, or 3 mg/kg subcutaneously (SC) once daily), fluconazole (20 mg/kg per orally (PO) once daily), or caspofungin (10 mg/kg intraperitoneally (IP) once daily) began 1-day post-inoculation and continued for 7 days. In the fungal burden arm, mice were humanely euthanized on day 8 post-inoculation, and kidneys and brains were collected, weighed, and homogenized for analysis of colony-forming units (CFU/g). In the survival arm, mice were followed off therapy for 14 days, until day 21 post-inoculation. Fungal burden was also assessed in the survival arm on day 21 or on the day the mice succumbed to infection. Differences in survival were assessed by Kaplan-Meier analysis with the log-rank test. ANOVA with Tukey's post-test for multiple comparisons were used to assess for differences in fungal burden and geometric mean (GM) MIC values.

C. auris = experiment: In vitro susceptibility testing according to CLSI M27-A3 (MIC); type: cell-based, Candida auris; conditions: for MIC50 / MIC90 / MIC: Candidozyma auris; for MIC50: lowest concentration that inhibited 50% of the isolates tested; for MIC90: lowest concentration that inhibited 90% of the isolates tested
Method: In vitro susceptibility testing was performed according to the CLSI M27-A3 standard, the contents of which are herein incorporated by reference, against 10 isolates available from the U.S. Food and Drug Administration Center for Disease Control Antibiotic Resistance (FDA CDC AR) Isolate Bank and 13 clinical isolates that were received for testing by the Fungus Testing Laboratory at University of Texas Health Science Center at San Antonio (UTHSCSA).
In vitro activity of T-2307, fluconazole, and caspofungin against C. auris. […] MIC50 and MIC90 are lowest concentrations that inhibited 50% and 90%, respectively, of the isolates tested. GM MIC is geometric mean MIC.

[1] = 50% inhibition endpoint, read-out: GM MIC (geometric mean MIC)
[2] = infecting clinical isolate of C. auris (DI 17-46), read-out: MIC against the infecting isolate

| SMILES | percent survival (C. auris (DI 17-46); caspofungin 10 mg/kg IP once daily for 7 days) [%] | brain fungal burden (C. auris (DI 17-46); fungal burden arm, day 8 post-inoculation, caspofungin 10 mg/kg IP, control 5.88) [log10 CFU/g] | kidney fungal burden (mean) (C. auris (DI 17-46); fungal burden arm, day 8 post-inoculation, caspofungin 10 mg/kg IP) [log10 CFU/g] | brain fungal burden (C. auris (DI 17-46); survival arm, day 21 or day mice succumbed, caspofungin 10 mg/kg IP, control 6.31) [log10 CFU/g] | kidney fungal burden (C. auris (DI 17-46); survival arm, day 21 or day mice succumbed, caspofungin 10 mg/kg IP) [log10 CFU/g] | MIC50 (C. auris; 50% inhibition endpoint) [µg/mL] | MIC90 (C. auris; 50% inhibition endpoint) [µg/mL] | MIC (C. auris; [1]) [µg/mL] | MIC (C. auris; [2]) [µg/mL] | improvement in survival vs control (C. auris (DI 17-46); fluconazole 20 mg/kg PO once daily) | percent survival (C. auris (DI 17-46); T-2307 3 mg/kg SC once daily for 7 days) [%] | kidney fungal burden (mean) (C. auris (DI 17-46); fungal burden arm, day 8 post-inoculation, T-2307 3 mg/kg SC) [log10 CFU/g] | nature of activity (kidney fungal burden vs 24-hour group before start of therapy) (C. auris (DI 17-46); fungal burden arm, T-2307 3 mg/kg SC) | improvement in survival vs control (C. auris (DI 17-46); lower doses of T-2307 (0.75, 1.5 mg/kg SC once daily)) | brain fungal burden (C. auris (DI 17-46); survival arm, day 21 or day mice succumbed, T-2307 3 mg/kg SC, control 6.31) [log10 CFU/g] | kidney fungal burden (C. auris (DI 17-46); survival arm, day 21 or day mice succumbed, T-2307 3 mg/kg SC) [log10 CFU/g] | MIC Range (C. auris; 50% inhibition endpoint, 23 C. auris isolates, 24 hours at 35° C.) [ng/mL] | MIC50 (C. auris; 100% inhibition endpoint) [µg/mL] | MIC90 (C. auris; 100% inhibition endpoint) [µg/mL] | MIC (C. auris; 100% inhibition endpoint, read-out: GM MIC (geometric mean MIC)) [µg/mL] |
| --- | --- | --- | --- | --- | --- | --- | --- | --- | --- | --- | --- | --- | --- | --- | --- | --- | --- | --- | --- | --- |
| CC[C@H](C)C[C@H](C)CCCCCCCCC(=O)N[C@H]1C[C@@H](O)[C@@H](NCCN)NC(=O)[C@@H]2[C@@H](O)CCN2C(=O)[C@H]([C@H](O)CCN)NC(=O)[C@H]([C@H](O)[C@@H](O)c2ccc(O)cc2)NC(=O)[C@@H]2C[C@@H](O)CN2C(=O)[C@H]([C@@H](C)O)NC1=O [Caspofungin, caspofungin] | 100 | 4.45 | 3.21 | 2.51 | 3.11 | 0.25 (≈ 0.229 µM) | 0.5 (≈ 0.457 µM) | 0.24 (≈ 0.22 µM) | 0.25 (≈ 0.229 µM) |  |  |  |  |  |  |  |  |  |  |  |
| OC(Cn1cncn1)(Cn1cncn1)c1ccc(F)cc1F [Fluconazole, fluconazole] |  |  |  |  |  | 4 (≈ 13.1 µM) | > 64 | 14.6 (≈ 47.7 µM) | > 64 | did not improve survival |  |  |  |  |  |  |  |  |  |  |
| N=C(N)c1ccc(OCCCC2CCN(CCCOc3ccc(C(=N)N)cc3)CC2)cc1 [T-2307, 4-{3-[4-(3-{4-[amino(imino)methyl]phenoxy}propyl)-1-piperidinyl]propoxy}benzamidine] |  |  |  |  |  | 0.015 (≈ 0.0343 µM) | 0.015 (≈ 0.0343 µM) | 0.011 (≈ 0.0251 µM) | < 0.008 |  | 70 | 5.06 | static in nature | did not improve survival | 4.16 | 6.28 | ≤8 to 15 | > 4 | > 4 | 2.19 (≈ 5 µM) |
